Measured values taken from ChEMBL document CHEMBL5370528, “Synthesis-accessibility-oriented design of c-Jun N-terminal kinase 1 inhibitor” (Eur J Med Chem, 2023).

Assays:
Mus musculus = experiment: Anti-fibrotic activity in bleomycin-induced C57BL/6 mouse model of pulmonary fibrosis assessed as reduction in mortality rate at 25 mg/kg, po administered twice a day for 3 weeks (reference value: 43%); type: functional; set-up: scale not given: the % may be the effect or the level left
[1] = biological target: c-Jun N-terminal kinase, JNK (Homo sapiens) (UniProt P45983+P53779+P45984); experiment: Inhibition of JNK in human BEAS-2B cells assessed as inhibition of anisomycin-activated c-Jun phosphorylation preincubated for 1 hrs followed by anisomycin activation for 1 hrs by Western blot analysis; type: cell-based; settings: dose 2-50 µM, time 2.0 hrs
[2] = biological target: c-Jun N-terminal kinase (Mus musculus) (UniProt Q91Y86+Q9WTU6+Q61831); experiment: Inhibition of JNK in mouse NIH-3T3 cells assessed as inhibition of anisomycin-activated c-Jun phosphorylation preincubated for 1 hrs followed by anisomycin activation for 1 hrs by Western blot analysis; type: cell-based; settings: NIH3T3, dose 2-50 µM, time 2.0 hrs
[3] = AUC (0 to infinity) in Sprague-Dawley rat at 75 mg/kg, po by HPLC-UV analysis; type: ADME, organism-based; set-up: dose 75 mg/kg, route po; settings: in vivo
[4] = Cmax in Sprague-Dawley rat at 75 mg/kg, po by HPLC-UV analysis; type: ADME, organism-based; set-up: dose 75 mg/kg, route po; settings: in vivo
[5] = Oral bioavailability in Sprague-Dawley rat at 75 mg/kg by HPLC-UV analysis; type: ADME, organism-based; settings: in vivo

Sequence of c-Jun N-terminal kinase (Mus musculus) (Q61831 whole entry, looked up): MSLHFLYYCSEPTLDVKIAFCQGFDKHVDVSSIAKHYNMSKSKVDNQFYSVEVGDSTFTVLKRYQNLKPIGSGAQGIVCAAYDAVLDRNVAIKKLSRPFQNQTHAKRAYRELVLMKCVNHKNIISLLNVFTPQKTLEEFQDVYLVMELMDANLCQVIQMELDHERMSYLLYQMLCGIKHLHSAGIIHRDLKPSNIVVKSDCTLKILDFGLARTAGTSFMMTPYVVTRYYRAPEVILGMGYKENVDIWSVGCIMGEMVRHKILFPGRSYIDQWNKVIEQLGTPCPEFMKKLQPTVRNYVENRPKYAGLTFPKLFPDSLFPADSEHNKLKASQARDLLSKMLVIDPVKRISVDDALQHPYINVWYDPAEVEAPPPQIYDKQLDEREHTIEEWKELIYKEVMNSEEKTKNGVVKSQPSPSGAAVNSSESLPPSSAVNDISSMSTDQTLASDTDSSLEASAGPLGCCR
Sequence of c-Jun N-terminal kinase (Mus musculus) (Q91Y86 whole entry, looked up): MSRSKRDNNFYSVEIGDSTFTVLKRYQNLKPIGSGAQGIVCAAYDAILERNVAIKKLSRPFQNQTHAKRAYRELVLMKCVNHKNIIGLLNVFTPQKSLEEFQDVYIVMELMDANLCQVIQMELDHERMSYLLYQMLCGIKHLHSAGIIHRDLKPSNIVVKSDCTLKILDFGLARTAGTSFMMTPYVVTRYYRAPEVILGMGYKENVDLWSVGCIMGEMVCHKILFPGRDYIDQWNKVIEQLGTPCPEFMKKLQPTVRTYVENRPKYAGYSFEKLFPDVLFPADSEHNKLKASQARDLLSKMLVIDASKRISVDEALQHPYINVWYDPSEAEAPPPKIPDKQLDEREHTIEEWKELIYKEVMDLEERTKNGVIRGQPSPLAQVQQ
Sequence of c-Jun N-terminal kinase (Mus musculus) (Q9WTU6 whole entry, looked up): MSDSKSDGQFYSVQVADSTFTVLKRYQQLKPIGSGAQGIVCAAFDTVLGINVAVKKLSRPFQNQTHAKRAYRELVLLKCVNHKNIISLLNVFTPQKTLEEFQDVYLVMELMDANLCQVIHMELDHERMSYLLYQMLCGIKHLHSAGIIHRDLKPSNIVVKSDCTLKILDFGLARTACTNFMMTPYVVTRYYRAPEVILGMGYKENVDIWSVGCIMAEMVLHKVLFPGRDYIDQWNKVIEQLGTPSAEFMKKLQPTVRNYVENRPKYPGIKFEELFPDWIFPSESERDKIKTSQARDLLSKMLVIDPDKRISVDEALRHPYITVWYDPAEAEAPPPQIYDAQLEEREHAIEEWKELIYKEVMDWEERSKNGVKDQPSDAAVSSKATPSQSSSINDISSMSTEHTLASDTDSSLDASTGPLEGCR

With `CC(C)(C)CNc1ncc(Br)c(Nc2ccccc2C(N)=O)n1` the Activity (Mus musculus) was 14%, the inhibition [1] was “Dose-Dependent Effect” and the inhibition [2] was “Dose-Dependent Effect”. For the same compound, the AUC(0-inf) [3] was 1.7 µg·h/mL, the Cmax [4] was 0.488 µg/mL and the bioavailability [5] was 15.3%.
